In patent US10765655B2, “Composition containing monoacetyldiglyceride compound as active ingredient for preventing or treating chronic obstructive pulmonary disease” (ENZYCHEM LIFESCIENCES CORPORATION, priority 2013, dated 2020):
Marks after values point to notes of the source that are not given here.

Columns and labels:
[1] = tested on: TNF-α; test: COPD mouse model: TNF-α in bronchoalveolar lavage fluid by ELISA; format: in vivo, BALB/c mice; conditions: for TNF-α: BALF; for % inhibition of TNF-α: vs COPD group
Experimental: (§1) To make COPD mouse models, 8-week-old male BALB/c mice were anesthetized with 7% chloral hydrate, and then intratracheally inhaled with 100 μl of a 1:1 mixture of 100 μg/ml of LPS and 4 mg/ml, of standard cigarette smoking (CS) extract (LPS+CS mixture) once a week for 3 weeks. […] EC-18 was dissolved in 0.5% CMC (carboxmethylcellulose sodium) to concentrations of 30 mg/kg and 60 mg/kg, and administered orally to the mice at 1 hour before intratracheal inhalation of 100 μl of the PS+CS mixture. The mice were divided into: (i) an untreated normal group (intact); (ii) a control group treated with LPS+CS (COPD-control); (iii) a test group administered orally with 30 mg/kg of EC-18 at 1 hour before treatment with LPS+CS; and (iv) a test group administered orally with 60 mg/kg of EC-18 at 1 hour before treatment with the LPS+CS mixture. After completion of the experiment, blood, bronchoalveolar lavage fluid and lung tissue were isolated from the mice of each of the groups.
(§2) The levels of CXCL-1, TNF-α and MIP-2 in the bronchoalveolar lavage isolated from the mice were measured by an enzyme-linked immunosorbent assay (ELISA). An antibody specific for each of CXCL-1, TNF-α and MIP-2 was diluted in coating buffer (291195, R&D System), coated on microwells, and then incubated overnight at 4° C. Each well was washed three times with washing buffer, and then 100 μl of serum (10-fold diluted) was added to each well. Each well was allowed to stand at room temperature for 1 hour, and then washed twice with washing buffer antibody, after which each well was treated with 100 μl of avidin-conjugated HRP (DY998, R&D System) and allowed to stand at room temperature for 1 hour, followed by washing. 100 μl of a TMB substrate was added to each well which was then allowed to stand in a dark room for 30 minutes and treated with 50 μl of a stop solution. Next, the absorbance at 450 nm was measured using an ELISA reader (Emax, Molecular Devices), and the percent inhibition of expression was calculated.

[2] = tested on: neutrophils in bronchoalveolar lavage fluid; test: COPD mouse model (LPS+CS): neutrophil count in bronchoalveolar lavage fluid; format: in vivo, BALB/c mice; conditions: BALF; for % inhibition of neutrophil: vs COPD group
Experimental: as §1
(§3) After blood collection, the mice were dissected. To isolate cells from the bronchoalveolar lavage fluid (BALF), a syringe containing 1 ml of FBS-free DMEM medium was injected into the trachea and fixed with a string, and then cells were separated by performing circulation three times and were treated with ACK solution at 37° C. for 5 minutes to lyse red blood cells. Next, the cells were washed with FBS-free DMEM medium and then stained with 0.04% trypan blue, after which the number of total cells was measured.

[3] = tested on: MIP-2; test: COPD mouse model: MIP-2 in bronchoalveolar lavage fluid by ELISA; format: in vivo, BALB/c mice; conditions: for MIP-2: BALF; for % inhibition of MIP-2: vs COPD group
Experimental: as §1, §2

[4] = GLP toxicity test; cited from earlier work
[5] = tested on: Gr-1+ neutrophils; test: COPD mouse model: Gr-1+ neutrophils in BAL by flow cytometry; format: in vivo, BALB/c mice; conditions: for Gr-1^+ neutrophils (10^4): BAL cells; for % inhibition of Gr-1^+ neutrophils: vs COPD group
Experimental: as §1
(§4) The separated BAL cells were adjusted to 5×10^5 cells, and then subjected to immunofluorescence staining at 4° C. PE-anti-CD4 (553047, BD Pharmingen) and PE-anti-Gr-1 (553128, BD Pharmingen) were added to the cells which were then incubated on ice for 30 minutes. After incubation, the cells were washed three times or more with phosphate buffered saline, and then the frequency of CD4^+ cells and Gr-1^+ neutrophils was analyzed using the Cell Quest program (643274, BD Biosciences) of a flow cytometer. Next, based on total cells, the absolute number of cells in each tissue was calculated.

[6] = tested on: IL-4 mRNA; test: Inhibition of PMA-induced IL-4 mRNA expression in EL-4 cells (PCR); format: cell-based, mouse; conditions: 20 μg/mL, PMA 1 ng/mL; for Inhibition (%) of IL-4 mRNA expression: vs PMA-treated group
Experimental: Based on the results of Example 1, each of the monoacetyldiacylglycerol compounds was added to EL-4 cells at a concentration of 20 μg/mL, and the effect thereof on the inhibition of PMA-induced expression of IL-4 mRNA in the EL-4 cells was measured. Specifically, the expression level of IL-4 mRNA induced by PMA (1 ng/mL) was measured using real-time polymerase chain reaction (real-time PCR) and quantitative real time polymerase chain reaction (qPCR). For cell preparation, EL-4 cells were seeded into a 6-well plate at a concentration of 1×10^6 cells/well and cultured for 12 hours, after which the cells were treated with each of the monoacetyldiacylglycerol compounds at a concentration of 20 μg/mL for 1 hour and treated with PMA at a concentration of 1 ng/m, followed by culture for 12 hours. Total RNA was extracted from the cells using Trizol B (Invitrogen, USA) and quantified, and then cDNA was synthesized from the total RNA using an Omniscript RT kit (Qiagen, GmbH, Hilden, Germany). The synthesized cDNA as a template was mixed with each of the IL-4 and GAPDH primers shown in Table 2 below and was subjected to PCR using a PCR mix (PCR Master Mix, Bioneer, Korea) under the following conditions: denaturation at 94° C. for 5 minutes; and then 30 cycles, each consisting of 30 sec at 95° C., 45 sec at 60° C., and 45 sec at 72° C.; followed by enzyme inactivation at 72° C. for 10 minutes. The results of measuring the percent inhibition of expression of IL-4 mRNA in EL-4 cells as described above are shown in Table 3 below. The designation of each of the samples shown in Table 3 below is as described with respect to Table above.

[7] = tested on: CD4+ cells; test: COPD mouse model: CD4+ cells in BAL by flow cytometry; format: in vivo, BALB/c mice; conditions: for CD4^+ cells (10^4): BAL cells; for % inhibition of CD4^+ cells: vs COPD group
Experimental: as §1, §4

[8] = tested on: CXCL-1; test: COPD mouse model: CXCL-1 in bronchoalveolar lavage fluid by ELISA; format: in vivo, BALB/c mice; conditions: for CXCL-1: BALF; for % inhibition of CXCL-1: vs COPD group
Experimental: as §1, §2

[9] = tested on: total inflammatory cells in bronchoalveolar lavage fluid; test: COPD mouse model (LPS+CS): total cell count in bronchoalveolar lavage fluid; format: in vivo, BALB/c mice; conditions: BALF; for % inhibition of total cell: vs COPD group
Experimental: as §1, §3

[10] = tested on: sepsis animal model; conditions: cecal-ligation-puncture; cited from earlier work
[11] = tested on: EL-4 cells; conditions: mouse, 24 h, 10 μg/ml
Experimental: EL-4 cells that are mouse T lymphoma cells were suspended in 10% fetal bovine serum-containing RPMI medium (Gibco) at a concentration of 5×10^4 cells/ml, and 100 μl of the cell suspension was seeded into each well of a 96-well plate and cultured for 12 hours. Next, the cell culture was treated with monoacetyldiacylglycerol (MADG) compounds at the concentrations shown in Table 1 below, and was then additionally cultured for 24 hours. Next, according to the instruction provided in a CCK-8 kit (Dojindo) capable of counting cells, 10 μl of CCK-8 solution was added to the kit and allowed to react for 30 minutes to 4 hours, and then the absorbance (OD) at 570 nm was measured. In equation 1, the negative control group indicates a cell culture treated with 0.2% DMSO. […] Cell viability (%)=[(OD 570 nm value of MADC-treated group)/(OD 570 nm value of negative control group)]×100 Equation 1

CCCCC/C=C\C/C=C\CCCCCCCC(=O)OC(COC(C)=O)COC(=O)CCCCCCCCCCCCCCC (stereo not shown) [EC-18, 1-palmitoyl-2-linoleoyl-3-acetylglycerol]
TNF-α ([1]; 30 mg/kg oral): 22.4 ± 13.98 pg/mL
% inhibition of TNF-α ([1]; 30 mg/kg oral): 36.0%
TNF-α ([1]; 60 mg/kg oral): 13.4 ± 5.33 pg/mL
% inhibition of TNF-α ([1]; 60 mg/kg oral): 61.8%
Neutrophil ([2]; 30 mg/kg oral): no great change
% inhibition of neutrophil ([2]; 30 mg/kg oral): 3%
Neutrophil ([2]; 30 mg/kg oral, listed as EC18): 196.9 ± 31.61
Neutrophil ([2]; 60 mg/kg oral): 116.8 ± 37.43
% inhibition of neutrophil ([2]; 60 mg/kg oral): 42%
MIP-2 ([3]; 30 mg/kg oral): 28.9 ± 5.72 pg/mL
% inhibition of MIP-2 ([3]; 30 mg/kg oral): 40.6%
MIP-2 ([3]; 60 mg/kg oral): 17.6 ± 4.07 pg/mL
% inhibition of MIP-2 ([3]; 60 mg/kg oral): 63.8%
toxicity [4]: no-toxicity
Gr-1^+ neutrophils (10^4) ([5]; 30 mg/kg oral): 20.0 ± 6.97 10^4
% inhibition of Gr-1^+ neutrophils ([5]; 30 mg/kg oral): 40.9%
Gr-1^+ neutrophils (10^4) ([5]; 60 mg/kg oral): 12.6 ± 4.93 10^4
% inhibition of Gr-1^+ neutrophils ([5]; 60 mg/kg oral): 62.7%
Expression level of IL-4 mRNA (percentage relative to PMA-treated group) [6]: 78.17 ± 6.26 percentage
Inhibition (%) of IL-4 mRNA expression [6]: 21.83%
CD4^+ cells (10^4) ([7]; 30 mg/kg oral): 308.2 ± 66.78 10^4
% inhibition of CD4^+ cells ([7]; 30 mg/kg oral): 39.6%
CD4^+ cells (10^4) ([7]; 60 mg/kg oral): 152.8 ± 66.25 10^4
% inhibition of CD4^+ cells ([7]; 60 mg/kg oral): 70.0%
CXCL-1 ([8]; 30 mg/kg oral): 264.3 ± 79.77 pg/mL
% inhibition of CXCL-1 ([8]; 30 mg/kg oral): 15.4%
CXCL-1 ([8]; 60 mg/kg oral): 142.9 ± 26.99 pg/mL
% inhibition of CXCL-1 ([8]; 60 mg/kg oral): 54.3%
Total cell (10^6) ([9]; 30 mg/kg oral): 81.0 ± 12.14^ 10^6
% inhibition of total cell ([9]; 30 mg/kg oral): 15.1%
Total cell (10^6) ([9]; 60 mg/kg oral): 52.8 ± 10.41* 10^6
% inhibition of total cell ([9]; 60 mg/kg oral): 44.8%
survivability ratio of animals [10]: increases survivability ratio of animals

CCCCC/C=C\C/C=C\CCCCCCCC(=O)OCC(COC(C)=O)OC(=O)CCCCCCCCCCCCCCC (stereo not shown) [LPAG, 1-linoeoyl-2-palmitoyl-3-acetylglycerol]
Expression level of IL-4 mRNA (percentage relative to PMA-treated group) [6]: 61.11 ± 27.49 percentage

CCCCC/C=C\C/C=C\CCCCCCCC(=O)OCC(COC(C)=O)OC(=O)CCCCCCCCCCCCCCCCC (stereo not shown) [LSAG, 1-linoeoyl-2-stearoyl-3-acetylglycerol]
Expression level of IL-4 mRNA (percentage relative to PMA-treated group) [6]: 41.62 ± 17.61 percentage

CCCCCCCC/C=C\CCCCCCCC(=O)OCC(COC(C)=O)OC(=O)CCCCCCCCCCCCCCC (stereo not shown) [OPAG, 1-oleoyl-2-palmitoyl-3-acetylglycerol]
Expression level of IL-4 mRNA (percentage relative to PMA-treated group) [6]: 58.58 ± 21.74 percentage
Inhibition (%) of IL-4 mRNA expression [6]: 41.42%

CCCCCCCC/C=C\CCCCCCCC(=O)OCC(COC(C)=O)OC(=O)CCCCCCCCCCCCCCCCC (stereo not shown) [OSAG, 1-oleoyl-2-stearoyl-3-acetylglycerol]
Expression level of IL-4 mRNA (percentage relative to PMA-treated group) [6]: 55.84 ± 25.77 percentage
Inhibition (%) of IL-4 mRNA expression [6]: 44.16%

CCCCCCCC/C=C\CCCCCCCC(=O)OC(COC(C)=O)COC(=O)CCCCCCCCCCCCCCC (stereo not shown) [POAG, 1-palmitoyl-2-oleoyl-3-acetylglycerol]
Expression level of IL-4 mRNA (percentage relative to PMA-treated group) [6]: 75.47 ± 13.15 percentage
Inhibition (%) of IL-4 mRNA expression [6]: 24.53%
EL-4 cell viability (%, mean ± SD) [11]: 106.39 ± 1.19%

CCCCCCCCCCCCCCCC(=O)OCC(COC(C)=O)OC(=O)CCCCCCCCCCCCCCC (stereo not shown) [PPAG, 1-palmitoyl-2-palmitoyl-3-acetylglycerol]
Expression level of IL-4 mRNA (percentage relative to PMA-treated group) [6]: 48.62 ± 19.38 percentage
Inhibition (%) of IL-4 mRNA expression [6]: 51.38%

CCCCCCCCCCCCCCCCCC(=O)OC(COC(C)=O)COC(=O)CCCCCCCCCCCCCCC (stereo not shown) [PSAG, 1-palmitoyl-2-stearoyl-3-acetylglycerol]
Expression level of IL-4 mRNA (percentage relative to PMA-treated group) [6]: 70.49 ± 17.78 percentage
Inhibition (%) of IL-4 mRNA expression [6]: 29.51%
